Experimental data: EP4785942A1, “NOVEL COMBINATION THERAPY FOR BLOOD CANCER” (Carna Biosciences, Inc., priority 2023, dated 2025)
Where two headings read alike, the source gives them in different places.

What was measured:
Assay type in all cases: cell-based
MOLM-14 = assay: Cell growth suppression test in monotherapy (resazurin); settings: Homo sapiens, read-out: Cell growth suppression activity IC50
Procedure: (§1) A human acute monocytic leukemia cell line (THP-1), a human acute myeloid leukemia cell line (MV-4-11), a human acute monocytic leukemia cell line (MOLM-14), and a human erythroleukemia cell line (TF-1) were cultured in a 5% CO2 incubator using a RPMI1640 medium (Roswell Park Memorial Institute medium, nacalai tesque) comprising 10% Fetal bovine serum (Thermo Scientific, SIGMA-ALDRICH, or Cytiva) and 1% penicillin/streptomycin (nacalai tesque).
(§2) THP-1 cells and MV-4-11 cells at 2×10^4 cells/well, and MOLM-14 cells and TF-1 cells at 5×10^3 cells/well were each seeded to a 96 well plate (cell plate), and thereto was added a test compound diluted with the medium so that the final concentration thereof would be 3 nM to 30 µM (final DMSO concentration: 0.3%). After the resulting mixture was cultured for 72 hours, a resazurin reagent (nacalai tesque) was added thereto. After 3 hours, a fluorescence at an excitation wavelength of 560 nm and a fluorescence wavelength of 590 nm was measured, and each IC50 value of the inhibitory activity was calculated by a criterion in which a well without the compound and without the cells was set to be 100%, and a well without the compound and with cells was set to be 0%.

MV-4-11 = assay: as above; settings: Homo sapiens, read-out: Cell growth suppression activity IC50
Procedure: as §1, §2

TF-1 = assay: as above; settings: Homo sapiens, read-out: Cell growth suppression activity IC50
Procedure: as §1, §2

THP-1 = assay: as above; settings: Homo sapiens, read-out: Cell growth suppression activity IC50
Procedure: as §1, §2

THP-1 cells = assay: Dose-response test of DNA methyltransferase inhibitor in the presence of compound (I); settings: Homo sapiens, read-out: THP-1 cell growth suppression activity azacitidine IC50 (converted)
Procedure: as §2
Changes in the IC50 value of a DNA methyltransferase inhibitor (azacitidine) in the presence of the compound (I) were investigated.

[1] = MOLM-14 cells, monotherapy, cultured for 72 hours
[2] = MV4-11, MV-4-11 cells, monotherapy, cultured for 72 hours
[3] = TF-1 cells, monotherapy, cultured for 72 hours
[4] = THP-1 cells, monotherapy, cultured for 72 hours

Row | Structure (SMILES) | IC50 (MOLM-14; [1]) | IC50 (MV-4-11; [2]) | IC50 (TF-1; [3]) | IC50 (THP-1; [4]) | IC50 (MOLM-14; MOLM-14, 72 h) | IC50 (MV-4-11; MV4-11, 72 h) | IC50 (TF-1; TF-1, 72 h) | IC50 (THP-1; THP-1, 72 h) | IC50 (THP-1 cells; THP-1, Concentration of compound (I) 0 µM (DMSO-added control)) | IC50 (THP-1 cells; THP-1, Concentration of compound (I) 3 µM)
1 | CCOC(=O)C1=C(NN2CCN(CC(F)(F)F)CC2)O/C(=C\c2c[nH]c3ncccc23)C1=O [Compound (I), ethyl 5-[(1H-pyrrolo[2,3-b]pyridin-3-yl)methylene]-4-oxo-2-{[4-(2,2,2-trifluoroethyl)piperazinyl]amino}-4,5-dihydrofuran-3-carboxylate] | 160 nM | 190 nM | 340 nM | 4070 nM | – | – | – | – | – | –
2 | Nc1ncn([C@H]2C[C@H](O)[C@@H](CO)O2)c(=O)n1 [Decitabine, decitabine] | – | – | – | – | 160 nM | 540 nM | 120 nM | > 30000 nM | – | –
3 | Nc1ncn([C@@H]2O[C@H](CO)[C@@H](O)[C@H]2O)c(=O)n1 [Azacitidine, azacitidine] | 2850 nM | 1200 nM | 1920 nM | 7390 nM | – | – | – | – | 6930 nM | 2030 nM
